Patent publication US9808014B2, “Active-powder biocidal composition comprising at least one copper salt and at least one zinc salt and the method for the production thereof” (Textil Copper Andino S.A. [CL/CL], priority 2011, dated 2017)

Experiments:
[1] = Solubility constant in aqueous solution (Kps)
Staphylococcus aureus = settings: Cu^+ ions; cited from earlier work
Subtilis bacteria = settings: Cu^+ ions; cited from earlier work

Molecule | Group (classification according to Kps value) [1] | MIC value for copper (Staphylococcus aureus) [µM] | MIC value for copper (Subtilis bacteria) [µM]
Copper (I)Hydroxide | B (Group B: salts with a Kps within a range that goes from a value greater than 9*10^−16 until a value equal to or less than 9*10^−11.) | – | –
[Cu] [copper] | – | 0.35 | 0.04
[OH][Cu][OH] [Copper (II)Hydroxide] | C (Group C: salts with a Kps within a range that goes from a value greater than or equal to 1*10^−20 until a value equal to or less than 9*10^−16.) | – | –
Copper(I) Oxide | B (Group B: salts with a Kps within a range that goes from a value greater than 9*10^−16 until a value equal to or less than 9*10^−11.) | – | –
Copper(I)Phthalocyanine | B (Group B: salts with a Kps within a range that goes from a value greater than 9*10^−16 until a value equal to or less than 9*10^−11.) | – | –
